# From a melting point compilation (Tetko et al.; mined from patent text by program, amines drawn as free bases though some values may be those of a salt)
row,SMILES,melting point [°C]
1,N#Cc1c(Cl)c2cc(Cl)ccc2n(Cc2ccccc2)c1=O,243
2,COc1cc(C=O)c(OC)c(C)c1C,69 to 71
3,C[C@@H]1CCC[C@H](C)N1CCN1CCN(CCCN2CCCCC2)C1=C(C#N)C#N,106 to 108
4,CCOC(=O)CCc1cccc(N)c1,132 to 135
5,COc1cc(CCCC2SC(=O)NC2=O)cc(OC)c1OCc1coc(/C=C/c2ccccc2)n1 (centres undefined),163 to 164
6,COc1nn(CC(=O)C2CC2)c(=O)s1,98 to 100
7,COC1CCC(C2=C(Cl)C(=O)c3ccccc3C2=O)CC1 (centres undefined),110 to 113
8,CCCCCCCCCCCCCCCCCC(=O)NN(C(=O)CCCCCCCCCCCCCCCCC)C(=O)CCCCC(=O)NN,244
9,O=S(CCO)Cc1cccnc1 (centres undefined),84 to 86
10,CCCS(=O)c1cc(O)ccc1C (centres undefined),84 to 85
11,CN1CCC2(CC1)SC(c1ccc(Cl)cc1)c1ccccc12 (centres undefined),121 to 123
12,COC(=O)CC/C(C)=C/Cc1c(NC(=O)C(F)(F)F)c2c(c(C)c1OC)COC2=O,107 to 109
13,C#CCS(=O)(=O)c1cccc([N+](=O)[O-])c1,250 to 255
14,COC(=O)C1=C(C)NC(C)=C(C(=O)OCCN2CCC(c3ccccc3)CC2)C1c1cccc([N+](=O)[O-])c1 (centres undefined),159 to 160
15,COc1ccc(C(CC(C)=O)N2C(=O)c3cccc(N(S(C)(=O)=O)S(C)(=O)=O)c3C2=O)cc1OC (centres undefined),194 to 196
16,C=CCSC1(C(F)(F)F)C=NC(=O)Nc2ccc(Cl)cc21 (centres undefined),147 to 149
17,CC(=O)Nc1cc(Br)nn1-c1c(Cl)cc(C(F)(F)F)cc1Cl,180 to 187
18,COc1ccc(NC(=S)NCCO)c(C)c1,171 to 174
19,CCN(CC)c1ccc(/C=C/c2cc(/C=C/c3ccc4cc[nH]c4c3)[nH]n2)c(OCCN2CCOCC2)c1,96 to 99
20,c1ccc(-c2cc3ncnc(Nc4ccc(NCc5c[nH]c6ccccc56)cc4)c3s2)cc1,259 to 261
21,COC(=O)C=CN1CCN(c2cccc(-n3cnc4cc(-c5ccoc5)ccc43)c2)CC1,168 to 171
22,COc1cc2ncnc(N3CCN(C(=O)Nc4ccc(N=Nc5ccccc5)cc4)CC3)c2cc1OC,244 to 246
23,COc1ccc(C#CC(C)N(O)C(N)=O)cc1Oc1ccc(F)cc1 (centres undefined),139 to 140
24,CCCN(CCC)C(=O)Cc1ccccc1Nc1c(Cl)cccc1Cl,84 to 86
25,Cc1c(Cl)cccc1S(=O)(=O)C[N+](=O)[O-],78 to 79

row,SMILES,melting point [°C]
1,CC(C)(C)OC(=O)NCCNc1n[nH]c2ncnc(Nc3cccc(Cl)c3)c12,206 to 208
2,CNc1ccc2c(C)nc(CC3OC(COC(=O)c4ccccc4)C(O)C3O)n2n1 (centres undefined),163 to 165
3,O=C(O)CCCCCCNS(=O)(=O)c1ccc(Cl)cc1,128 to 129
4,Nc1nc(Nc2ccc(N3CCOCC3)cc2)sc1C(=O)c1c(Cl)cccc1Cl,245 to 247
5,CCOC(=O)c1[nH]c2cc(Cl)cc(Cl)c2c1NCC(=O)c1ccc([N+](=O)[O-])cc1,283 to 286
6,Cc1ccc2[nH]c(-c3ccccc3O)cc2c1,211 to 215
7,O=C1c2cc([N+](=O)[O-])ccc2SC12CC2,126 to 128
8,COC(=O)C1=C(C)NC(C)=C(c2ccccc2)C1c1cccc(Cl)c1 (centres undefined),191
9,COc1cccc(-c2cc3cnc(N)nc3nc2NC(=O)NC(C)(C)C)c1,275 to 280
10,OC1N=C(c2ccccc2F)c2cc(Cl)ccc2-c2ncncc21 (centres undefined),186 to 188
11,O=C(O)C1CCc2cccc3c(=O)[nH]c(=O)n1c23 (centres undefined),> 300
12,FC(F)Sc1ccc(-c2ccc(Cl)cc2)[nH]1,42 to 46
13,Nc1cc(F)ccc1C=C(Br)Br,72 to 73
14,Cc1ccc(S(=O)(=O)C(C)(C)C(=O)C2CCCCC2)cc1,123 to 124
15,CN1Cc2ccccc2C(=O)c2cc(CC(=O)O)cc(Br)c21,164 to 167
16,C#CCSc1nn(C(=O)NS(=O)(=O)c2c(C)csc2C(=O)OCC)c(=O)n1C,175
17,CC(=O)n1c2ccccc2c2ccc(C(=O)CCl)cc21,175 to 176
18,Cc1oc(-c2ccc(F)cc2)nc1CCOc1ccc(CN(O)C(N)=O)cc1,158 to 160
19,CCc1nc2c(N)nc3ccccc3c2n1CCCCS(C)(=O)=O,182 to 185
20,CNCC[C@H](O)c1cccs1,68 to 70
21,NCc1c(Nc2ccccc2)cccc1-c1ccccc1,115 to 116
22,CCCCCCCCCCCCCCC(=O)c1ccc2cc(O)c(O)cc2c1,133 to 134
23,Clc1cccnc1-c1cc(OCCc2ccccn2)c2[nH]nc(Nc3cnccn3)c2c1,117 to 119
24,CCOC(=O)c1nnc(-c2ccc(S(C)=O)cc2)o1 (centres undefined),129 to 131
25,COc1ccc(-c2nccc3c(CC#N)cccc23)cc1,130 to 132

row,SMILES,melting point [°C]
1,Fc1ccc2c(-c3ccncc3)noc2c1,138 to 146
2,CCOC(=O)N(C)NC1=Nc2sc(CC)cc2C(c2ccccc2Cl)=NC1,172 to 174
3,O=C(O)CCCc1cccc(OCc2cn(-c3ccc(C(F)(F)F)cn3)nc2C2CCCCC2)c1,128 to 129
4,Cc1cc2c(-c3ccccc3)c(CO)n(C)c(=O)c2cc1C,209 to 210
5,O=C(O)c1cn(C2CC2)c2c(F)c(N3CCOC(CN4CCNCC4)C3)c(F)cc2c1=O (centres undefined),260
6,COc1ccc(C(=CC(=O)N2CCOCC2)c2ccc(Oc3nc(Cl)nc(Cl)n3)cc2)cc1OC,90 to 100
7,CCOC=C(C(=O)CCl)C(=O)OCC,86.5
8,COc1n[nH]cc1-c1ccccc1,150
9,Cc1cc(-c2cc(F)c(F)cc2-c2ccc(S(C)(=O)=O)cc2)ccc1F,167 to 168
10,Cc1cccc2c1COC(=O)N2,222 to 226
11,CC(=O)Nc1cccc(-c2cncnc2)c1,157 to 158
12,COc1ccc(CN(C)CCCSc2ccc(NC(=O)c3cccc4c(=O)c5ccccc5sc34)cc2)cc1OC,148
13,c1ccc(Nc2ccnc3[nH]cnc23)cc1,251 to 252
14,CC(=O)NCS[C@@H]1CC(=O)N(Cc2ccc(Oc3ccc(F)cc3)nc2)C1,94 to 95
15,C=C(C)C(=O)NCC(=O)NCC(=O)O,200 to 201
16,Cn1nc(-c2ccc(S(=O)(=O)N3CCn4c(c(C(N)=O)c(Cl)c4-c4ccccc4)C3)s2)cc1C(F)(F)F,159 to 161
17,CCCCCS(=O)(=O)NC/C=C/c1ccc(OCCOC)cc1Oc1ncc(C(F)(F)F)cc1Cl,106
18,CON1CCCNC1=C[N+](=O)[O-],84 to 85
19,Cc1ccc(S(=O)(=O)O[C@@H]2CCCN(S(=O)(=O)c3ccc(C)cc3)C2)cc1,140 to 147
20,COc1ccc(C(=O)C(CCC(=O)c2ccc(F)cc2)c2ccc(OC)cc2)cc1 (centres undefined),71 to 74
21,CC1CC(c2c[nH]c(-c3ccc(F)cc3)c2-c2ccncc2)=CCN1C (centres undefined),198 to 201
22,CNC(=NS(C)(=O)=O)NCCCSc1ncc(Br)c(NC(N)=NCC(F)(F)F)n1,166 to 167
23,COc1cccc2c1C(c1ccc(Cl)cc1)NC(=O)C2 (centres undefined),250 to 251
24,CCN(CC)c1nsc(NC(=O)NC)c1C#N,182 to 183
